From patent publication US12336981B2, “Compounds and compositions for the inhibition of NAMPT” (Valo Health, Inc., priority 2010, dated 2025) come the findings set out here.

Read-outs that look alike come from different tables or passages of the source. Bounds are passed on as bounds.

In one test the test system is A2780 cells. As to the kind of experiment: In-vitro cell proliferation assay (SRB), A2780 cells. The conditions noted are these: Homo sapiens, A2780, 72 h, A2780 cells, 72 hours, read-out: A2780 IC50. Type of test: cell-based. In short, it runs like this: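 Cells were plated overnight at 37° C., 5% CO2, then exposed to serially diluted compounds (0.1% DMSO final) for 72 hours. Viable cells were measured by sulforhodamine B staining after TCA fixation, read at 570 nm; media-only background was subtracted before % inhibition was calculated.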

Another test concerns the target T1, NAMPT (Homo sapiens, UniProt P43490).
T1 construct: His tag; host or cells: E. coli
Kind of test: Biochemical inhibition assay: NAMPT enzymatic reaction, NMN quantified by mass spectrometry. The settings on record: read-out: Biochem IC50. A digest of the protocol: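 Inhibition of E. coli-expressed His-tagged human NAMPT, measured as NMN formation by mass spectrometry after a 30 min room-temperature reaction containing 1 μM NAM, 100 μM PRPP and 2.5 mM ATP.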

T1 sequence (P43490 whole entry): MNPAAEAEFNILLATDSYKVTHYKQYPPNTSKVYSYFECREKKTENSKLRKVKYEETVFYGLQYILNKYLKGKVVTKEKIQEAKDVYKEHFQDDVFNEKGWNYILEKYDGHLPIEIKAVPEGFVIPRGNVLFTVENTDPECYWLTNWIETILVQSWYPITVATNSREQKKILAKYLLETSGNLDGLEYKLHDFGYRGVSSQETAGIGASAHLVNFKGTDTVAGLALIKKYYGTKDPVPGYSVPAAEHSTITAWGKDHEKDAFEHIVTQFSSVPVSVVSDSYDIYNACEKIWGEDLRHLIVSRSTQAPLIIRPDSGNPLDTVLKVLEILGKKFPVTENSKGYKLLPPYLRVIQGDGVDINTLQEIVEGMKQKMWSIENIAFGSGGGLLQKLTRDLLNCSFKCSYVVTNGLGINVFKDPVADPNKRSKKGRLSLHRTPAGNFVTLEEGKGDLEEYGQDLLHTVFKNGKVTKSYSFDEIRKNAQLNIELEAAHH

Turning to `O=C(NCc1ccc(S(=O)(=O)c2cnc3ccc(Cl)cn23)cc1)c1cnc2[nH]ncc2c1` [N-[(4-{6-chloroimidazo[1,2-a]pyridine-3-sulfonyl}phenyl)methyl]-1H-pyrazolo[3,4-b]pyridine-5-carboxamide], the half-inhibitory concentration (IC50) was 0.8 nM in the test on A2780 cells (SRB) and 3.3 nM on NAMPT (NAMPT enzymatic assay).

As for `COc1ccc(S(=O)(=O)c2ccc(CNC(=O)c3ccc4nccn4c3)cc2)cc1F` [N-({4-[(3-fluoro-4-methoxybenzene)sulfonyl]phenyl}methyl)imidazo[1,2-a]pyridine-6-carboxamide], the half-inhibitory concentration (IC50) came out at 2.89 nM in the test on A2780 cells (SRB) and 5.95 nM on NAMPT (NAMPT enzymatic reaction).

`Cc1cc(Cl)ccc1S(=O)(=O)c1ccc(CNC(=O)c2cc3cnccc3[nH]2)cc1` [N-({4-[(4-chloro-2-methylbenzene)sulfonyl]phenyl}methyl)-1H-pyrrolo[3,2-c]pyridine-2-carboxamide]: the figures for the IC50 in the test with A2780 cells (SRB assay) and on NAMPT (NAMPT enzymatic reaction) were 25 nM and 27 nM, respectively.

With `CCOCc1ccccc1S(=O)(=O)c1ccc(CNC(=O)c2cc3ccncc3o2)cc1`, the values for the half-inhibitory concentration (IC50) in the test on A2780 cells (SRB) and on NAMPT (NAMPT enzymatic assay) were 26 nM and 13.3 nM, respectively.

Consider `O=C(NCc1ccc(S(=O)(=O)c2c(Cl)cccc2Cl)cc1)c1cc2ccncc2s1`, for which the IC50 came out at 18.2 nM in the test on A2780 cells (SRB) and 7.6 nM on NAMPT (NAMPT enzymatic reaction).

Turning to `CCOc1cc(F)ccc1S(=O)(=O)c1ccc(CNC(=O)c2cnc3[nH]ncc3c2)cc1`, the IC50 stood at 67 nM in the test on A2780 cells (SRB) and 86.3 nM at NAMPT (NAMPT enzymatic reaction).

As to `O=C(NCc1ccc(S(=O)(=O)c2cncc3ccccc23)cc1)c1cc2ccncc2o1` [N-{[4-(isoquinoline-4-sulfonyl)phenyl]methyl}furo[2,3-c]pyridine-2-carboxamide], the concentration for half-maximal inhibition (IC50) in the test with A2780 cells (SRB) amounted to 3 nM; on NAMPT (NAMPT enzymatic assay), 19 nM.

Consider `Cc1cccc(S(=O)(=O)c2ccc(CNC(=O)c3ccc4nccn4c3)cc2)c1C` [N-({4-[(2,3-dimethylbenzene)sulfonyl]phenyl}methyl)imidazo[1,2-a]pyridine-6-carboxamide], for which the values for the IC50 in the test on A2780 cells (SRB) and on NAMPT (NAMPT enzymatic reaction) were 9.85 nM and 43.3 nM, respectively.

Regarding `CC(C)Oc1cc(F)ccc1S(=O)(=O)c1ccc(CNC(=O)c2cc3cnccc3[nH]2)cc1`, the IC50 in the test on A2780 cells (SRB) amounted to 3.3 nM; on NAMPT (NAMPT enzymatic assay), 25.4 nM.

As to `Cc1cccc(S(=O)(=O)c2ccc(CNC(=O)c3cnc4nccn4c3)cc2)c1C`, the IC50 in the test with A2780 cells (SRB) came out at 46.9 nM; on NAMPT (NAMPT enzymatic reaction), 4.1 nM.

As for `O=C(NCc1ccc(S(=O)(=O)c2ccc(-n3cccn3)cc2F)cc1)c1cc2ccncc2o1`, the IC50 in the test on A2780 cells (SRB) came to 8 nM; on NAMPT (NAMPT enzymatic assay), 18.4 nM.

As for `CCCCOc1ccc(Cl)cc1S(=O)(=O)c1ccc(CNC(=O)c2cnc3[nH]ncc3c2)cc1` [N-({4-[(2-butoxy-5-chlorobenzene)sulfonyl]phenyl}methyl)-1H-pyrazolo[3,4-b]pyridine-5-carboxamide], the IC50 is 73.7 nM with A2780 cells (SRB) and 117 nM at NAMPT (NAMPT enzymatic reaction).

Turning to `Cc1cc(S(=O)(=O)c2ccc(CNC(=O)c3cnc4nccn4c3)cc2)ccc1F`, the figures for the IC50 in the test on A2780 cells (SRB) and at NAMPT (NAMPT enzymatic reaction) were 9.6 nM and 2.2 nM, respectively.

On to `Cc1ccc(S(=O)(=O)c2ccc(CNC(=O)c3cc4cnccc4[nH]3)cc2)cc1Cl`, for which the IC50 in the test with A2780 cells (SRB) was determined as 2.5 nM; on NAMPT (NAMPT enzymatic reaction), 8.3 nM.

As for `Cc1cccc(S(=O)(=O)c2ccc(CNC(=O)c3cc4ccncc4o3)cc2)n1` [N-{[4-(6-methylpyridine-2-sulfonyl)phenyl]methyl}furo[2,3-c]pyridine-2-carboxamide], the IC50 in the test with A2780 cells (SRB) stood at 12.5 nM; on NAMPT (NAMPT enzymatic assay), 12.8 nM.

For the compound `COc1cc(F)ccc1S(=O)(=O)c1ccc(CNC(=O)c2cc3cnccc3[nH]2)cc1` [N-({4-[(4-fluoro-2-methoxybenzene)sulfonyl]phenyl}methyl)-1H-pyrrolo[3,2-c]pyridine-2-carboxamide], the 50% inhibitory concentration (IC50) with A2780 cells (SRB assay) came to 7 nM; at NAMPT (NAMPT enzymatic reaction), 31 nM.

Take `CCOc1cc(F)ccc1S(=O)(=O)c1ccc(CNC(=O)c2ccc3nccn3c2)cc1`: the results for the half-maximal inhibitory concentration (IC50) in the test on A2780 cells (SRB) and at NAMPT (NAMPT enzymatic reaction) were 1.5 nM and 31.4 nM, respectively.

`CC(C)Oc1cccc(S(=O)(=O)c2ccc(CNC(=O)c3cnc4nccn4c3)cc2)c1`: the IC50 with A2780 cells (SRB) came to 10.5 nM; at NAMPT (NAMPT enzymatic assay), 2.3 nM.

On to `CN(C)S(=O)(=O)c1cccc(S(=O)(=O)c2ccc(CNC(=O)c3cnc4nccn4c3)cc2)c1`, for which the IC50 with A2780 cells (SRB) came out at 11.2 nM; at NAMPT (NAMPT enzymatic assay) it was 2 nM.

For the compound `CN(C)c1ccc(S(=O)(=O)c2ccc(CNC(=O)c3cnc4[nH]ncc4c3)cc2)cn1` [N-({4-[6-(dimethylamino)pyridine-3-sulfonyl]phenyl}methyl)-1H-pyrazolo[3,4-b]pyridine-5-carboxamide], the IC50 in the test on A2780 cells (SRB) was 3.3 nM; at NAMPT (NAMPT enzymatic assay), 30.5 nM.

As to `COc1ccc(C#N)cc1S(=O)(=O)c1ccc(CNC(=O)c2ccc3nccn3c2)cc1`, the IC50 in the test with A2780 cells (SRB) was 11.9 nM; on NAMPT (NAMPT enzymatic reaction), 14.6 nM.

For the compound `O=C(NCc1ccc(S(=O)(=O)c2cccc(C(F)(F)F)n2)cc1)c1ccc2nccn2c1` [N-({4-[6-(trifluoromethyl)pyridine-2-sulfonyl]phenyl}methyl)imidazo[1,2-a]pyridine-6-carboxamide], the IC50 in the test with A2780 cells (SRB) is 1.5 nM; at NAMPT (NAMPT enzymatic assay), 8.7 nM.

As for `CS(=O)(=O)Nc1ccccc1S(=O)(=O)c1ccc(CNC(=O)c2cc3cnccc3[nH]2)cc1` [N-({4-[(2-methanesulfonamidobenzene)sulfonyl]phenyl}methyl)-1H-pyrrolo[3,2-c]pyridine-2-carboxamide], the results for the IC50 in the test with A2780 cells (SRB assay) and at NAMPT (NAMPT enzymatic reaction) were above 1000 nM and 284 nM, respectively.

`O=C(NCc1ccc(S(=O)(=O)c2cncc(N3CCCC3)c2)cc1)c1ccc2nccn2c1` [N-({4-[5-(pyrrolidin-1-yl)pyridine-3-sulfonyl]phenyl}methyl)imidazo[1,2-a]pyridine-6-carboxamide]: the IC50 with A2780 cells (SRB) amounted to 0.5 nM; at NAMPT (NAMPT enzymatic assay), 4 nM.

With `O=C(NCc1ccc(S(=O)(=O)c2cnc3n2CCCCC3)cc1)c1cc2ccncc2s1` [N-[(4-{5H,6H,7H,8H,9H-imidazo[1,2-a]azepine-3-sulfonyl}phenyl)methyl]thieno[2,3-c]pyridine-2-carboxamide], the values for the IC50 in the test with A2780 cells (SRB) and on NAMPT (NAMPT enzymatic assay) were 0.8 nM and 3 nM, respectively.

With `O=C(NCc1ccc(S(=O)(=O)c2cccc(C(F)(F)F)c2)cc1)c1ccc2nccn2c1` [N-[(4-{[3-(trifluoromethyl)benzene]sulfonyl}phenyl)methyl]imidazo[1,2-a]pyridine-6-carboxamide], the IC50 was 1.72 nM in the test on A2780 cells (SRB) and 8.42 nM at NAMPT (NAMPT enzymatic assay).

`CCN(CC)C(=O)c1cc(F)cc(S(=O)(=O)c2ccc(CNC(=O)c3cc4cnccc4[nH]3)cc2)c1`: the 50% inhibitory concentration (IC50) was 3.3 nM in the test on A2780 cells (SRB) and 9.3 nM at NAMPT (NAMPT enzymatic assay).

Turning to `O=C(NCc1ccc(S(=O)(=O)c2ccc(-n3cccn3)cc2)cc1)c1cnc2[nH]ncc2c1`, the IC50 is 7.5 nM in the test on A2780 cells (SRB) and 12.3 nM at NAMPT (NAMPT enzymatic assay).

For `COCc1cccc(S(=O)(=O)c2ccc(CNC(=O)c3cc4ccncc4o3)cc2)c1`, the IC50 worked out at 13.4 nM with A2780 cells (SRB) and 18.5 nM at NAMPT (NAMPT enzymatic assay).

Take `O=C(NCc1ccc(S(=O)(=O)c2cnc3ccccc3c2)cc1)c1ccc2nccn2c1` [N-{[4-(quinoline-3-sulfonyl)phenyl]methyl}imidazo[1,2-a]pyridine-6-carboxamide]: the IC50 with A2780 cells (SRB) was determined as 1 nM; at NAMPT (NAMPT enzymatic assay), 14 nM.

On to `Cn1cc(S(=O)(=O)c2ccc(CNC(=O)c3cc4ccncc4o3)cc2)cn1` [N-{[4-(1-methyl-1H-pyrazole-4-sulfonyl)phenyl]methyl}furo[2,3-c]pyridine-2-carboxamide], for which the IC50 with A2780 cells (SRB) is 65.4 nM; at NAMPT (NAMPT enzymatic assay), 16.8 nM.

As to `O=C(NCc1ccc(S(=O)(=O)c2ccccc2)cc1)N1CCc2[nH]cnc2C1` [N-{[4-(benzenesulfonyl)phenyl]methyl}-1H,4H,5H,6H,7H-imidazo[4,5-c]pyridine-5-carboxamide], the IC50 in the test on A2780 cells (SRB assay) and at NAMPT (NAMPT enzymatic reaction) was above 2000 nM each time.

Regarding `CCOc1cccc(S(=O)(=O)c2ccc(CNC(=O)c3cc4ccncc4s3)cc2)c1F`, the results for the IC50 in the test with A2780 cells (SRB) and at NAMPT (NAMPT enzymatic reaction) were 12.9 nM and 3.7 nM, respectively.

With `CCS(=O)(=O)c1cccc(S(=O)(=O)c2ccc(CNC(=O)c3cc4cnccc4[nH]3)cc2)c1` [N-[(4-{[3-(ethanesulfonyl)benzene]sulfonyl}phenyl)methyl]-1H-pyrrolo[3,2-c]pyridine-2-carboxamide], the IC50 in the test with A2780 cells (SRB) was 15.5 nM; on NAMPT (NAMPT enzymatic assay), 17 nM.

For the compound `COc1ccc(S(=O)(=O)c2ccc(CNC(=O)c3cc4cnccc4[nH]3)cc2)c(OC)c1` [N-({4-[(2,4-dimethoxybenzene)sulfonyl]phenyl}methyl)-1H-pyrrolo[3,2-c]pyridine-2-carboxamide], the IC50 in the test on A2780 cells (SRB) was determined as 7 nM; at NAMPT (NAMPT enzymatic assay), 27 nM.

`CCOc1cc(S(=O)(=O)c2ccc(CNC(=O)c3cc4ccncc4o3)cc2)ccc1F` [N-({4-[(3-ethoxy-4-fluorobenzene)sulfonyl]phenyl}methyl)furo[2,3-c]pyridine-2-carboxamide]: the IC50 in the test on A2780 cells (SRB) came out at 7.2 nM; at NAMPT (NAMPT enzymatic reaction) it was 11 nM.

Turning to `CCCOc1cccc(S(=O)(=O)c2ccc(CNC(=O)c3cnc4nccn4c3)cc2)c1`, the results for the IC50 in the test with A2780 cells (SRB) and at NAMPT (NAMPT enzymatic reaction) were 7.5 nM and 4.8 nM, respectively.

Consider `Cn1ncc2ccc(S(=O)(=O)c3ccc(CNC(=O)c4cc5ccncc5s4)cc3)cc21` [N-{[4-(1-methyl-1H-indazole-6-sulfonyl)phenyl]methyl}thieno[2,3-c]pyridine-2-carboxamide], for which the IC50 in the test with A2780 cells (SRB) stood at 1.1 nM; at NAMPT (NAMPT enzymatic assay), 2.3 nM.

On to `CCOc1cccc(S(=O)(=O)c2ccc(CNC(=O)c3cc4cnccc4[nH]3)cc2)c1` [N-({4-[(3-ethoxybenzene)sulfonyl]phenyl}methyl)-1H-pyrrolo[3,2-c]pyridine-2-carboxamide], for which the results for the IC50 in the test with A2780 cells (SRB) and at NAMPT (NAMPT enzymatic reaction) were 3.5 nM and 7.7 nM, respectively.

In the case of `Cc1cc(S(=O)(=O)c2ccc(CNC(=O)c3cc4ccncc4s3)cc2)ccc1F` [N-({4-[(4-fluoro-3-methylbenzene)sulfonyl]phenyl}methyl)thieno[2,3-c]pyridine-2-carboxamide], the values for the concentration for half-maximal inhibition (IC50) with A2780 cells (SRB assay) and at NAMPT (NAMPT enzymatic reaction) were 2.9 nM and 7 nM, respectively.
